Reference: patent US20250019445A1, “P-SELECTIN INHIBITION FOR TREATMENT OF CANCER” (Ramot at Tel-Aviv University Ltd., priority 2022, published 2025)

Assays:
[1] = different animal models; wording wraps from r29 ("anti-") to r30; cited from earlier work
[2] = system: P-selectin-, E-selectin-, and L-selectin-dependent adhesion; conditions: in humans in vitro; cited from earlier work
[3] = patients, administered systemically; cited from earlier work
[4] = system: Human MDA-BM-231 3D spheroids; assay: Breast cancer 3D spheroid invasion; type: cell-based; conditions: co-cultured with brain microenvironment cells; FIG. 7B
A549 spheroids = assay: Lung cancer spheroid growth and invasion; type: cell-based, human

Q: Which anti-inflammatory effects [1] does the source give for `O=C(O)Cc1cccc(-c2cc(CCCCCCc3ccc(O[C@H]4O[C@H](CO)[C@@H](O)[C@H](O)[C@@H]4O)c(-c4cccc(CC(=O)O)c4)c3)ccc2O[C@H]2O[C@H](CO)[C@@H](O)[C@H](O)[C@@H]2O)c1` [Bimosiamose] here?
A: inflammatory effects in different animal models.

Q: And the “inhibition of selectin-dependent adhesion” value [2]?
A: been shown to inhibit P-selectin-, E-selectin-, and L-selectin-

Q: Which tolerability [3] does the source give for “inclacumab: monoclonal antibody directed towards P-selectin” here?
A: well tolerated

Q: What does the source list for `COc1ccc(C2CC(c3c(O)cc(C)oc3=O)=NCCS2)c(OC)c1` (stereo not shown) [SELPi, 3-[7-(2,4-Dimethoxyphenyl)-2,3,6,7-tetrahydro-1,4-thiazepin-5-yl]-4-hydroxy-6-methyl-2H-pyran-2-one]?
A: spheroid invasion [4]: reduced invasion; spheroid growth and invasion in Matrigel (A549 spheroids; FIG. 8D): reduced A549 spheroid growth and invasion in Matrigel, in a dose-dependent manner; spheroid growth (A549 spheroids; in the presence of human microglia, FIG. 8C): inhibits A549 spheroid growth

B1: crizanlizumab: Humanized monoclonal anti-P-selectin antibody. (antibody, chains of the INN, looked up, V domains shown)
VH: QVQLVQSGAEVKKPGASVKVSCKVSGYTFTSYDINWVRQAPGKGLEWMGWIYPGDGSIKYNEKFKGRVTMTVDKSTDTAYMELSSLRSEDTAVYYCARRGEYGNYEGAMDYWGQGTLVTVSS
VL: DIQMTQSPSSLSASVGDRVTITCKASQSVDYDGHSYMNWYQQKPGKAPKLLIYAASNLESGVPSRFSGSGSGTDFTLTISSLQPEDFATYYCQQSDENPLTFGGGTKVEIK
Q: For B1, which tolerability [3] is on record?
A: well tolerated
